SMILES strings stand for the structures. Structures can show the parent of a compound that is named as a salt.

We go through four compounds from patent publication US20100061928A1, “LABELLED ANALOGUES OF HALOBENZAMIDES AS RADIOPHARMACEUTICALS” (Institut National De La Sante et De La Recherche Medicale …, priority 2006, published 2010).

In data set [1] the test system is melanoma grafted subcutaneously (B16 F0 cells). Put plainly: Antitumour effectiveness by systemic administration after labelling with ^131I. In kind it is in vivo, C57BL6 mice. The procedure:
The study relates to 20 C57B16 mice bearing a melanoma grafted subcutaneously by injection of 50 000 B16 F0 cells (0.1 ml). On the 17th day, the animals are weighed and the tumours are measured in two dimensions (L, l), the tumour volume being expressed by L×l^2×½. On the 18th day (D18), the mice are divided into two groups, the labelled compound [^131I]-31 with a high specific activity is administered by the i.v. route (37 MBq; 0.2 ml) to 10 mice and 10 constitute the control batch. The monitoring of the animals is carried out with all the necessary radioprotection measures and in particular the removal of the contaminated bedding, the animals are weighed and the tumours are measured every two days. Taking into account the volume of the tumours and ethical considerations, the surviving animals were euthenized on the 20th day after injection, i.e. 38 days after the tumour graft. […] The evaluation of the effectiveness of an i.v. administration of [^131I]-31 on tumour growth of C57BL6 mice which have received a subcutaneous graft of B 16 melanoma 18 days before treatment is represented in FIG. 2. The times on the abscissa are given with respect to the day of inoculation of the tumours and with respect to the day of treatment.
The evaluation of the effectiveness of an i.v. administration of [^131I]-46 on tumour growth of C57BL6 mice which have received a subcutaneous graft of B 16 melanoma is represented in FIG. 3. The times on the abscissa are given with respect to the day of inoculation of the tumours and with respect to the first day of treatment. Under these conditions, the median of survival is extended and changes from 32 days for the control animals to 39 days for the treated animals. This experiment was repeated according to the same protocol and fully superimposable results were obtained.

The subject of data set [2] is grafted B16 F0 murine melanoma tumour. Put plainly: Biodistribution of the ^125I-labelled molecules in the melanoma-bearing mouse (autoradiography of whole-body sections).
The test system of data set [3] is tumour. As to the kind of experiment: Dosimetry with regard to the tumour (MIRD programme, extrapolated to ^131I).
Data set [4] relates to human melanoma (M4Beu). Put plainly: Cytotoxicity, Hoechst test, M4Beu.
The test system of data set [5] is murine melanoma (B16 F0). As to the kind of experiment: Cytotoxicity, Hoechst test, B16 F0. As to conditions: read-out: IC50 B16; B16 F0 murine melanoma, 48 hours incubation, Hoechst test.
Data set [6] deals with human fibroblast cell lines. As to the kind of experiment: Cytotoxicity, Hoechst test, human fibroblasts. As to conditions: read-out: IC50 Fibroblast; human fibroblasts, 48 hours incubation, Hoechst test.
The mark [7] stands for this setting: single i.v. administration 37 MBq on D18 after graft, versus controls.

Regarding `CCN(CC)CCNC(=O)c1ccc2cc([131I])ccc2n1.Cl.Cl` [[^131I]-31, [^131I]-N-(2-diethylaminoethyl)-6-iodoquinoline-2-carboxamide dihydrochloride], in data set [1] (setting [7]), the “median of survival (in words)” value was “a significant difference regarding the median of survival was not demonstrated” and the “tumour growth (in words)” value was “markedly slowed down”.

Regarding `CCN(CC)CCNC(=O)c1cccc2c(Nc3ccc(NS(C)(=O)=O)cc3OC)c3cc(I)ccc3nc12` [compound 129, N-(2-diethylaminoethyl)-7-iodo-9-(4-methanesulphonamido-2-methoxyanilino)acridine-4-carboxamide dihydrochloride], the “Biodistribution, Mean, GB” value in data set [2] (1 H) was found to be 20.19; in data set [2] (6 H), 166.43. Also, the “Biodistribution, Mean, brain” value turned out to be 0.12 in data set [2] (1 H) and 0.03 in data set [2] (3 H). The figures for the “Biodistribution, Mean, muscle” value in data set [2] (3 H) and in data set [2] (6 H) were 0.48 and 0.44, respectively. Further, the “Biodistribution, Mean, thyroid” value in data set [2] (thyroid, 6 H) came out at 34.81. The Effective period in data set [3] (extrapolated to 131I labelling) is 88.3 h. In addition, the Biological period in data set [3] (from biodistribution data) was 162.3 hours. Further, the “cytotoxic effectiveness (in words)” value in data set [4] (M4Beu human cells, compared with amsacrine) is “best effectiveness with regard to the M4Beu human cells, close to the values obtained for amscrine”.

With `CCN(CC)CCNC(=O)c1cnc2cc([131I])ccc2n1.Cl` [[^131I]-46, [^131I]-N-(2-diethylaminoethyl)-6-iodoquinoxaline-2-carboxamide hydrochloride], the “tumour growth (in words)” value in data set [1] (two doses of 18.5 MBq i.v., 6 and 10 days after induction of the tumours) is “clearly slowed down”. Moreover, the “median of survival, treated animals” value in data set [1] (two doses of 18.5 MBq i.v., 6 and 10 days after induction of the tumours, control animals 32 days) came to 39 days.

Regarding `CN(C)CCNC(=O)c1cccc2cc3ccccc3nc12` [DACA, reference compound], the IC50 in data set [5] was determined as 190 nM; in data set [6] it was 7.1 µM; in data set [4] (read-out: IC50 M4Beu, M4Beu human melanoma, 48 hours incubation, Hoechst test) it was 1800 nM.

One may read the IC50 as the concentration that inhibits the measured activity by half.
